In US11098010B2 (priority 2017, dated 2021):
Read-outs that look alike come from different tables or passages of the source.

System: HBV rcDNA in HepDE19 cells
Test: HepDE19 assay with bDNA quantitation of HBV rcDNA
Assay type: cell-based, hepatitis B virus (HBV)
[1] = Hepatitis B virus, HepDE19, 168 h, HepDE19 cells, inhibition of rcDNA formation, 7 day incubation, top concentration 25 μM, read-out: DE-19 bDNA EC50
[2] = Hepatitis B virus, HepDE19, 168 h, read-out: DE-19 bDNA EC50 (μM), HepDE19 cells, inhibition of rcDNA formation, 7 day incubation, top concentration 25 μM

Compound | EC50 [1] [µM] | EC50 [2] [µM] | further results
O=C1CC[C@H](OC(=O)N[C@H]2CCc3c(C(=O)Nc4ccc(F)c(Cl)c4)ccc(F)c32)CN1 [Compound 200, O—(S)-6-Oxopiperidin-3-yl, N—((S)-4-((3-chloro-4-fluorophenyl)carbamoyl)-7-fluoro-2,3-dihydro-1H-inden-1-yl) carbamate] | 0.43 |  | 
COCC(=O)N1CCC(COC(=O)N[C@H]2CCc3c(C(=O)Nc4ccc(F)c(Cl)c4)ccc(F)c32)CC1 [Compound 185, O-(1-(2-Methoxyacetyl)piperidin-4-yl)methyl, N—(S)-(4-((3-chloro-4-fluorophenyl)carbamoyl)-7-fluoro-2,3-dihydro-1H-inden-1-yl) carbamate] |  | 0.37 | 
O=C1CC[C@@H](OC(=O)N[C@H]2CCc3c(C(=O)Nc4ccc(F)c(Cl)c4)ccc(F)c32)CN1 [Compound 199, O—(R)-6-Oxopiperidin-3-yl, N—((S)-4-((3-chloro-4-fluorophenyl)carbamoyl)-7-fluoro-2,3-dihydro-1H-inden-1-yl)carbamate] | 0.25 |  | 
O=C(Nc1ccc(F)c(Cl)c1)c1ccc(F)c2c1CC[C@@H]2NS(=O)(=O)CC1CC1 [Compound 221, (S)—N-(3-Chloro-4-fluorophenyl)-1-((cyclopropylmethyl)sulfonamido)-7-fluoro-2,3-dihydro-1H-indene-4-carboxamide] | 0.21 |  | 
COc1ccc(Cn2ccc3cnc(N[C@H]4CCc5c(C(=O)Nc6ccc(F)c(Cl)c6)ccc(F)c54)nc32)cc1 [Compound 197, (S)—N-(3-Chloro-4-fluorophenyl)-7-fluoro-1-((7-(4-methoxybenzyl)-7H-pyrrolo[2,3-d]pyrimidin-2-yl)amino)-2,3-dihydro-1H-indene-4-carboxamide] |  | 1.2 | 
O=C(N[C@H]1CCc2c(C(=O)Nc3ccc(F)c(Cl)c3)ccc(F)c21)OCc1cccc(C(F)(F)F)n1 [Compound 168, O-(6-(Trifluoromethyl)pyridin-2-yl)methyl, N—(S)-(4-((3-chloro-4-fluorophenyl)carbamoyl)-7-fluoro-2,3-dihydro-1H-inden-1-yl) carbamate] |  | 0.62 | 
COC(=O)N[C@H]1CCc2c(C(=O)Nc3ccc(F)c(C)c3)ccc(F)c21 [Compound 11, O-Methyl, N—(S)-(7-fluoro-4-((4-fluoro-3-methylphenyl)carbamoyl)-2,3-dihydro-1H-inden-1-yl) carbamate] |  | 0.21 | 
COC(=O)NC1c2c(F)ccc(C(=O)Nc3ccc(F)c(Cl)c3)c2CC1(C)C (centres unmarked) [Compound 122, O-Methyl, N-(4-((3-chloro-4-fluorophenyl)carbamoyl)-7-fluoro-2,2-dimethyl-2,3-dihydro-1H-inden-1-yl) carbamate] |  |  | EC50 (HepDE19 cells, inhibition of rcDNA formation, 7 day incubation, top concentration 25 μM, read-out: DE-19 bDNA EC50): 0.47 µM
CC(C)(C)[S@+]([O-])N[C@H]1CCc2c(C(=O)Nc3ccc(F)c(Cl)c3)ccc(F)c21 [Compound 280, (S)-1-(((S)-tert-Butylsulfinyl)amino)-N-(3-chloro-4-fluorophenyl)-7-fluoro-2,3-dihydro-1H-indene-4-carboxamide] | 4.6 |  | 
CNC(=O)NC1c2c(F)ccc(C(=O)Nc3ccc(F)c(Cl)c3)c2CC1(F)F (single isomer, unassigned) [Compound 211, N-(3-chloro-4-fluorophenyl)-2,2,7-trifluoro-1-(3-methylureido)-2,3-dihydro-1H-indene-4-carboxamide] | 6.9 |  | 
O=C1CC[C@@H](COC(=O)N[C@H]2CCc3c(C(=O)Nc4ccc(F)c(Cl)c4)cccc32)N1 [Compound 22, O—((S)-5-Oxopyrrolidin-2-yl)methyl, N—((S)-4-((3-chloro-4-fluorophenyl)carbamoyl)-2,3-dihydro-1H-inden-1-yl) carbamate] |  | 0.44 | 
CN(C)c1cccc(COC(=O)N[C@H]2CCc3c(C(=O)Nc4ccc(F)c(Cl)c4)ccc(F)c32)n1 [Compound 48, O-(6-(Dimethylamino)pyridin-2-yl)methyl, N—(S)-(4-((3-chloro-4-fluorophenyl)carbamoyl)-7-fluoro-2,3-dihydro-1H-inden-1-yl) carbamate] |  | 0.16 | 
O=C(Nc1ccc(F)c(Cl)c1)c1ccc(F)c2c1CC[C@@H]2NS(=O)(=O)C1CC1 [Compound 128, (S)—N-(3-Chloro-4-fluorophenyl)-1-(cyclopropanesulfonamido)-7-fluoro-2,3-dihydro-1H-indene-4-carboxamide] | 0.04 |  | 
O=C(N[C@H]1CCc2c(C(=O)Nc3ccc(F)c(Cl)c3)ccc(F)c21)OCCO [Compound 141, O-2-Hydroxyethyl, N—(S)-(4-((3-chloro-4-fluorophenyl)carbamoyl)-7-fluoro-2,3-dihydro-1H-inden-1-yl) carbamate] | 0.18 |  | 
CNC(=O)N1CCC(COC(=O)N[C@H]2CCc3c(C(=O)Nc4ccc(F)c(Cl)c4)ccc(F)c32)CC1 [Compound 176, O-(1-(Methylcarbamoyl)piperidin-4-yl)methyl, N—(S)-(4-((3-chloro-4-fluorophenyl)carbamoyl)-7-fluoro-2,3-dihydro-1H-inden-1-yl) carbamate] |  | 0.64 | 
CC(C)(C)N1Cc2c(C(=O)Nc3ccc(F)c(Cl)c3)cccc2S1(=O)=O [Compound 274, 2-(tert-Butyl)-N-(3-chloro-4-fluorophenyl)-2,3-dihydrobenzo[d]isothiazole-4-carboxamide 1,1-dioxide] | 4.1 |  | 
COC(=O)N[C@H]1CCc2c(C(=O)Nc3ccc(F)c(Cl)c3)ccc(F)c21 [Compound 19, O-Methyl, N—(S)-(4-((3-chloro-4-fluorophenyl)carbamoyl)-7-fluoro-2,3-dihydro-1H-inden-1-yl) carbamate] | 0.17 |  | 
CNC(=O)NC1COc2c(C(=O)Nc3ccc(F)c(C)c3)ccc(F)c21 (single isomer, unassigned) [Compound 204, 4-Fluoro-N-(4-fluoro-3-methylphenyl)-3-(3-methylureido)-2,3-dihydrobenzofuran-7-carboxamide] |  |  | EC50 (read-out: DE-19 bDNA EC50, HepDE19 cells, inhibition of rcDNA formation, 7 day incubation, top concentration 25 μM): 0.2 µM
O=C(Nc1ccc(F)c(Cl)c1)c1ccc(F)c2c1CC[C@@H]2NS(=O)(=O)NC1CC1 [Compound 243, (S)-N-(3-chloro-4-fluorophenyl)-1-((N-cyclopropylsulfamoyl)amino)-7-fluoro-2,3-dihydro-1H-indene-4-carboxamide] | 0.16 |  | 
Cc1cc(NC(=O)c2ccc(F)c3c2OCC3NC(=O)OCc2ccccn2)ccc1F (single isomer, unassigned) [Compound 206, O-Pyridin-2-ylmethyl, N-(4-fluoro-7-((4-fluoro-3-methylphenyl)carbamoyl)-2,3-dihydrobenzofuran-3-yl)carbamate] | 0.41 |  | 
O=C(N[C@@H]1c2cccc(C(=O)Nc3ccc(F)c(Cl)c3)c2C[C@H]1O)OCc1ccccn1 [Compound 51, O-Pyridin-2-ylmethyl, N-((1R,2R)-4-((3-chloro-4-fluorophenyl)carbamoyl)-2-hydroxy-2,3-dihydro-1H-inden-1-yl) carbamate] | 0.87 |  | 
O=C(N[C@H]1CCc2c(C(=O)Nc3ccc(F)c(Cl)c3)ccc(F)c21)OCC1CNC(=O)O1 (stereo partly drawn) [Compound 132, O-(2-Oxooxazolidin-5-yl)methyl, N—((S)-4-((3-chloro-4-fluorophenyl)carbamoyl)-7-fluoro-2,3-dihydro-1H-inden-1-yl) carbamate] |  | 0.22 | 
O=C(N[C@H]1CCc2c(C(=O)Nc3ccc(F)c(Cl)c3)ccc(F)c21)OCC(F)(F)F [Compound 88, O-2,2,2-Trifluoroethyl, N—(S)-(4-((3-chloro-4-fluorophenyl)carbamoyl)-7-fluoro-2,3-dihydro-1H-inden-1-yl) carbamate] |  | 0.21 | 
